Laboratory results as given in publication PMC10686989, “Distinct activation mechanisms of β-arrestin-1 revealed by ^19F NMR spectroscopy” (Nature Communications, 2023).

Experiments:
βarr1-1-395 = test: 1D 19F NMR of distal CT-deleted construct; format: biochemical, human; conditions: H295C site; PIP2
Text: (§1) The cysteine-less mutant (C59V/C125S/C140L/C150V/C242V/C251V/C269S) of the long splice variant of human βarr1 was used for introduction of single site cysteine mutation for ^19F labeling. The sequence was codon-optimized for expression in Escherichia coli and cloned into a pET-28a(+) vector (Novagen), with an N-terminal 6xHis-tag, followed by an SSG linker and a thrombin cleavage site. All mutants, including the 1–382 (βarr1-ΔCT) and 1–395 truncation constructs, were generated using site-directed mutagenesis kits (Thermo Fisher). Primer sequences for generating the mutants are listed in Supplementary Table 4.
(§2) The ^19F-labeled βarr1 was diluted to 50 μM using buffer E before incubation with peptides or PIP2. The V2Rpp, β2AR-GRK2pp/GRK6pp or PIP2 were added at 1.2-fold, 3-fold, and 1.5-fold molar ratio excess to the protein, respectively. […]
(§3) All ^19F NMR spectra were recorded at 298 K using a Bruker AVANCE III HD 800 MHz spectrometer equipped with a ^1H-^19F/^13C/^15N TCI triple resonance cryogenic probe. […] The carrier frequency was set to −68.0 ppm and the spectra were recorded with 4k points and a spectral width of 15,000 Hz. […]
All NMR data were analyzed using the MestraNova 12.0.0 software (https://mnova.pl). […] Peak intensities, integrated peak area and linewidths were determined based on the fitted results.

[1] = test system: βarr1-ΔCT (residues 1–382); test: 19F NMR (1D and CEST) of CT-truncated construct; format: biochemical, human; conditions: E206C site; PIP2 added to pre-activated ΔCT state
Text: as §1, §2, §3
(§4) All NMR data were analyzed using the MestraNova 12.0.0 software (https://mnova.pl). […] Peak intensities, integrated peak area and linewidths were determined based on the fitted results. […]

βarr1 = target: T1, βarr1 (Homo sapiens, UniProt P49407, C125S/C140L/C150V/C242V/C251V/C269S/C59V/D390C); test: 19F NMR titration of V2Rpp or PIP2 into βarr1 (activation); format: biochemical; conditions: V2Rpp up to 1.2:1, PIP2 up to 3.0:1 molar ratio
T1 construct: we started from a full-length functional cysteine-less βarr1 construct[20]; 6xHis-tag with SSG linker and thrombin cleavage site (N, cleaved yes); made in house; host or cells: E. coli BL21(DE3)
Description: All ^19F NMR spectra were recorded at 298 K using a Bruker AVANCE III HD 800 MHz spectrometer equipped with a ^1H-^19F/^13C/^15N TCI triple resonance cryogenic probe. All data were acquired and processed using the Bruker Topspin 4.2.0 software. For all 1D ^19F NMR experiments, the traditional one-pulse sequence was used. The carrier frequency was set to −68.0 ppm and the spectra were recorded with 4k points and a spectral width of 15,000 Hz. Because accurate calibration of the 90° excitation pulse length for individual samples is not practical due to the low protein concentrations, we used the 90° pulse length calibrated from a standard sample (0.05% Trifluoro-toluene in CDCl3) for all βarr1 samples. […] Therefore, all the ^19F experiments were conducted with a 100 ms relaxation delay, and acquired using 100,000–200,000 scans depending on the sample condition, yielding a signal-to-noise (S/N) ratio of approximately 50. […]
as §4
(c) Estimation of the V2Rpp-βarr1 binding affinity based on peak intensity changes of the D390C site of βarr1 titrated with V2Rpp. […] The values of θ were calculated as by θ = V-,⁄(V-. + V-,), in which VS1 and VS2 correspond to the volume integrals of the peaks of S1 and S2 states, respectively. […]

T1 sequence (P49407 whole entry C59V/C125S/C140L/C150V/C242V/C251V/C269S/D390C): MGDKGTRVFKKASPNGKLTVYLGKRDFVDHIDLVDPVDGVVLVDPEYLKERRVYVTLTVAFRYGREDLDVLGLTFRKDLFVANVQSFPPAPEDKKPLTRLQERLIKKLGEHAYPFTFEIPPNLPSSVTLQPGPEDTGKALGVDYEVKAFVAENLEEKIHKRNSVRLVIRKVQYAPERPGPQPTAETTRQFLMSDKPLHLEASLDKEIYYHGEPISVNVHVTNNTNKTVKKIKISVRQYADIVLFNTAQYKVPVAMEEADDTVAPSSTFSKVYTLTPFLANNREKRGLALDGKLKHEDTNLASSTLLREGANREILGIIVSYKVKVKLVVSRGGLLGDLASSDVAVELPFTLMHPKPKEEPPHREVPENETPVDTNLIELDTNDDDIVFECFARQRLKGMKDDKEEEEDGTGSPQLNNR

With CCCCCCCC(=O)OC[C@H](COP(=O)(O)O[C@@H]1[C@H](O)[C@H](O)[C@@H](OP(=O)(O)O)[C@H](OP(=O)(O)O)[C@H]1O)OC(=O)CCCCCCC [PIP2, diC8-PI(4,5)P2] the “Transition to S2 state” value (βarr1-1-395) was “promotes the S2 conformation to an extent comparable with full-length βarr1”, the “Active S2 conformation” value [1] was “increases the active S2 conformation” and the “Activation of βarr1 at D390C on titration” value (βarr1; D390C site) was “minimally affects”. For the same compound, the “Activation of βarr1 at H295C on titration” value (βarr1; H295C site) was “partially activates”.
